Measurements taken from patent publication US20100152249A1, “COMPOSITONS AND METHOD FOR TREATMENT OF MOOD AND COGNITIVE IMPAIRMENTS” (BOARD OF TRUSTEES OF THE LELAND STANFORD JUNIOR UNIVERSITY, priority 2008, published 2010).

System: patients with depressive disorder
Test: Open-label rosiglitazone added to treatment as usual for 12 weeks in patients with depressive disorder and surrogate IR blood markers
Format: in vivo, human
Method: Open-label PPAR agonist, rosiglitazone, titrated to a dose of 8 mg/day, was administered for 12 weeks to patients with depressive disorder receiving treatment as usual (TAU). Subjects were evaluated and surrogate IR blood markers were chosen based on fasting plasma glucose >100 mg/dL or triglyceride (TG) to high density lipoprotein (HDL) ratio of about 3.0 or greater.
Psychiatric Response to Treatment. […] Cohen's d for pre- to post-treatment HDRS-21 was 1.17, with an effect size of r=0.504. For CGI-S scores, Cohen's d and effect size r for CGI-S were 1.27 and 0.54, respectively. […] Even considering the very small sample size, the trajectory of decline in HDRS and CGI was linear.

[1] = 8 mg/day, 12 weeks, 8 completers

In the case of `CN(CCOc1ccc(CC2SC(=O)NC2=O)cc1)c1ccccn1` (stereo not drawn) [rosiglitazone, 5-[4-[2-(N-methyl-N-(2-pyridyl)amino)ethoxy]benzyl]thiazolidine-2,4-dione], the CGI-S post-treatment mean (8 mg/day, 12 weeks, add-on to TAU, 8 completers, baseline mean 4.0, p=0.043) is reported as 2.9, the HDRS-21 post-treatment mean (8 mg/day, 12 weeks, add-on to TAU, 8 completers, baseline mean 19.9, repeated measures ANOVA p=0.019) is reported as 12.1 and the “Cohen's d for CGI-S” value [1] is reported as 1.27. The “Cohen's d for pre- to post-treatment HDRS-21” value [1] was 1.17, the “effect size r for CGI-S” value [1] was 0.54 and the “effect size r for pre- to post-treatment HDRS-21” value [1] was 0.504. The “patients showing ≧50% HDRS-21 score reduction” value [1] was 4 of the 8, the “mean reduction in HDRS-21 scores” value (8 mg/day, 12 weeks, 8 completers, versus baseline) was 39.3% and the “depression severity by Hamilton Depression Rating Scale and clinical assessment (CGI) scores” value (8 patients who completed the 12 week study, moderate effect sizes) was “significant declines”.
